Patent US7250157B2, “Dermatological compositions and methods” (Applied Genetics Incorporated Dermatics, priority 1996, dated 2007)
Values joined by “and” are separate entries in the source; they are usually repeats but may differ in a detail not shown here. Equal values may be shown once. Read-outs that look alike come from different tables or passages of the source.

What was measured:
[1] = system: Cloudman S91 mouse melanoma cell line; test: Melanin content of S91 cells after treatment with test compound; assay type: cell-based
How it was run: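 Mouse S91 melanoma cells seeded at 10^5 cells/35 mm dish in 10% calf serum and cultured with test compound 6 days at 37 °C, 5% CO2. Differentiation scored microscopically, trypsin detachment time recorded, cells counted; melanin measured by absorbance at 475 nm and expressed as pg melanin/cell.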

[2] = system: Normal human epidermal melanocytes (NHEMs); test: Melanin induction in normal human epidermal melanocytes; assay type: cell-based
Method: Normal human epidermal melanocytes (NHEMs) were examined for induction of melanogenesis using cells and media from Clonetics Corporation (San Diego, Calif.). Cells were cultured exactly as specified by the supplier.

[3] = system: American short-haired guinea pigs; test: Topical melanogenesis (pigmentation rating) in guinea pigs; assay type: in vivo, guinea pig; set-up: Pigmentation Rating / Pigmentation Rating Background Corrected: scale not given here; settings: for relative melanogenesis rating (mean ±SE), scale 0-4: 25 μl twice per day for 5 days, rated two weeks after
How it was run: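 Agents applied topically to depilated back sites of American short-haired guinea pigs; PG, 2,3-BD and 1,2-cis-CPD at full strength, 3,3-M-1,2-BD at 4M in ethanol. Pigmentation subjectively rated two weeks after cessation of treatment, corrected for control-spot background, normalized to 1M and to 1,2-PG.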

[4] = system: Tyrosinase in normal human epidermal melanocytes (NHEM); test: Tyrosinase in NHEM (in situ, cellular, extracellular particulate, media); assay type: cell-based; settings: for Tyrosinase 200 g Partic, relative to controls (in parentheses) / Tyrosinase 17300 g Partic, relative to controls (in parentheses) / Tyrosinase Cellular, relative to controls (in parentheses) / Tyrosinase In Situ, relative to controls (in parentheses) / Tyrosinase Media, relative to controls (in parentheses): pair of replicates
Method: Tyrosinase was measured in normal human epidermal melanocytes (NHEM) using procedures identical to those described for S91 cells (Example 6), […], 1600×g, or 17,300×g for analysis of tyrosinase activity in the extracellular exported melanosomal particulate fraction, and in the resultant supernatant media fraction. In some cases (Table 11), tyrosinase was also measured by an in situ assay wherein radiolabelled tyrosine was added directly to freshly replaced media of NHEM for a period of 24 hrs following a 5 day treatment period (Abdel-Malek, et al., 1992, J. Cell. Physiol. 150:416-425). […] Both 5 mM 5-NBene-2,2-DM and 25 mM 3,3-M-1,2-BD induced more tyrosinase in each of these assays and fractions than did 1,2-PG. IBMX (3-isobutyl-1-methyl-xanthine) provided as a positive control, induced as much tyrosinase as 5 mM 5-NBene-2,2-DM in the in situ assay, but less in cellular, extracellular particulate and media fractions (Table 11).

[5] = system: tyrosinase activity in S91 mouse melanoma cells; test: Induction of tyrosinase activity in S91 cells; settings: for Tyrosinase dpm/hr 10^3 Cells / Tyrosinase dpm/hr ug Protein: 300 mM PG-1,2, 25 mM 3,3-M-1,2-BD, 50 mM 1,2-cs-CPD, 0.5 mM 2,3-Pyd, 0.1 mM IBMX, mean ±SE
Method: Compounds were examined for their ability to induce tyrosinase activity in S91 mouse melanoma cells. […] Following treatments, cells were trypsinized, counted by Coulter, pelleted by centrifugation at 1000×g, and analyzed for tyrosinase activity using modifications of previously described procedures (Pomerantz, S. H., 1966, J. Biol. Chem. 241:161-168; Jara, et al., 1988, Pigment Cell Res. 1: 332-339.). Briefly, cell pellets were solubilized by sonicating for 5 seconds in 600 ul 50 mM phosphate buffer pH 6.8 containing 0.5% Triton-X100, followed by vortexing, incubation on ice for 30 min, and then revortexing. From this, 200 ul aliquots were combined with 200 ul of reaction mixture containing either 75 uM tyrosine, 75 uM L-Dopa, and 2 uCi L-[3,5-^3H]Tyrosine in 50 mM NaPO4 pH 6.8 (L-Dopa+), or, 75 uM tyrosine, and 2 uCi L-[3,5-^3H]Tyrosine in 50 mM NaPO4 pH 6.8 (L-Dopa−) and incubated 1 hr at 37° C. Reactions were stopped by addition of 400 ul 10% activated charcoal in 0.1N HCl and incubation on ice for 15 min. This mixture was centrifuged at 17,300×g for 5 min, and 400 ul supernatant was then filtered through a 0.22 uM GV Durapore centifugal filter unit (Millipore) by centrifuging at 17,300×g for 5 min. Filtrate was added to 4 ml Fisher Plus scintillation fluid and counted on a Hewlett Packard scintillation counter. Tyrosinase activity was calculated as dpm/hr/ug protein and dpm/hr/10^3 cells. Each sample was analyzed with and without L-Dopa, a necessary cofactor for tyrosinase (Pomerantz, S. H., 1966, J. Biol. Chem. 241:161-168; McLane, et al., 1987, Biochem. Biophys. Res. Commun. 145:719-725). All reported tyrosinase values are exclusive of counts that occurred in buffer blanks and L-dopa negative aliquots. Protein was determined on aliquots of cell lysate, extracellular particulate lysate or media by the Bradford Coomassie Blue method (Bradford, 1967, Anal. Biochem. 72:248-254) using Bio-Rad Protein Assay Kit I.

[6] = No Penetration Enhancer, concentrations as E85
[7] = 5 day treatment, 300 mM 1,2-PG, 25 mM 3,3-M-1,2-BD, 5 mM 5-NBene-2,2-DM, 0.1 mM IBMX
[8] = 5 day treatment, concentrations as E130
[9] = Experiment 1, 5 mM 5-NBene-2,2-DM
[10] = Experiment 2, 5 mM 5-NBene-2,2-DM
[11] = Experiment 3, 5 mM 5-NBene-2,2-DM

SMILES: CC(O)CO (stereo not drawn) [1,2-propanediol, 1,2-Propanediol (Propylene Glycol)]
- Concentration Required for ≧2-fold Melanin Induction in S91 Cells [1]: 150 mM
- pg Melanin/Cell ([1]; 50 mM): 15.6 pg Melanin/Cell
- ug Melanin ([1]; 50 mM): 1.31 µg
- pg Melanin/Cell ([1]; 150 mM): 24.0 pg Melanin/Cell
- ug Melanin ([1]; 150 mM): 1.73 µg
- pg Melanin/Cell ([1]; 1% (136 mM), 6 days): 9.4 pg Melanin/Cell
- ug Melanin ([1]; 1% (136 mM), 6 days): 4.88 µg
- pg Melanin/Cell ([1]; 2% (272 mM), 6 days): 12.5 pg Melanin/Cell
- ug Melanin ([1]; 2% (272 mM), 6 days): 6.24 µg
- pg Melanin/Cell ([1]; 3% (408 mM), 6 days): 20.2 pg Melanin/Cell
- ug Melanin ([1]; 3% (408 mM), 6 days): 4.03 µg
- pg Melanin/Cell ([1]; 4% (544 mM), 6 days): 40.1 pg Melanin/Cell
- ug Melanin ([1]; 4% (544 mM), 6 days): 4.01 µg
- pg Melanin/Cell ([1]; 5% (680 mM), 6 days): 28.9 pg Melanin/Cell
- ug Melanin ([1]; 5% (680 mM), 6 days): 2.31 µg
- Concentration Required for ≧1.5-fold Melanin Induction in NHEMs [2]: 150 mM
- Pigmentation Rating Normalized to 1,2-PG [3, 6]: 1.0 ± 0.1
- Pigmentation Rating Normalized to 1M [3, 6]: 0.015 ± 0.002
- Pigmentation Rating Background Corrected ([3]; No Penetration Enhancer, corrected for Nair control, concentrations as E85): 0.21 ± 0.03
- Pigmentation Rating ([3]; No Penetration Enhancer, sites c and d, 13.61M 1,2-PG, 11.0M 2,3-M-2,3-BD, 11.3M 2-M-1,3-PG, 8.7M 1,2-cs-CPD, 4.0M 3,3-M-1,2-BD): 0.29 ± 0.09
- melanogenesis in guinea pigs (in words) ([3]; same relative body position): significant melanogenesis relative to depilitory treated controls
- relative melanogenesis rating (mean ±SE), scale 0-4 ([3]; site a (head), PG 13.6M, 2,3-BD 10.95M, 1,2-cs-CPD 10.7M full strength, 3,3-M-1,2-BD 4M in ethanol): 1.04 ± 0.21
- relative melanogenesis rating (mean ±SE), scale 0-4 ([3]; site b, full strength solutions, listed as PG): 0.50 ± 0.25 and 0.83 ± 0.17
- relative melanogenesis rating (mean ±SE), scale 0-4 ([3]; site c, full strength, 3,3-M-1,2-BD 4M in ethanol): 0.25 ± 0.09^1
- relative melanogenesis rating (mean ±SE), scale 0-4 ([3]; site d (tail), full strength solutions): 0.33 ± 0.16^1
- pigmentation response versus control (Nair or 2% 2P treated) spots ([3]; sites towards tail, 13.61M 1,2-PG, 10.6M 1,2-PG/2% 2P, 11M 2,3-dimethyl-2,3-butanediol): not significantly different from control
- Tyrosinase In Situ [4, 7]: 17.2 dpm/hr/10^3 Cells and 16.8 dpm/hr/10^3 Cells
- Tyrosinase Cellular ([4]; 5 day treatment, concentrations as E130, listed as 1,2-PG): 10875 dpm/hr/10^3 Cells and 10247 dpm/hr/10^3 Cells
- Tyrosinase Media ([4]; Post 17300 X g, 5 day treatment, concentrations as E130, listed as 1,2-PG): 2123 dpm/hr/10^3 Cells and 1864 dpm/hr/10^3 Cells
- Tyrosinase 200 g Partic, relative to controls (in parentheses) ([4]; concentrations as E130): (1.98X)
- Tyrosinase 17300 g Partic, relative to controls (in parentheses) ([4]; concentrations as E130): (1.50X)
- Tyrosinase Cellular, relative to controls (in parentheses) ([4]; concentrations as E130): (1.03) X
- Tyrosinase In Situ, relative to controls (in parentheses) ([4]; concentrations as E130): (1.07X)
- Tyrosinase Media, relative to controls (in parentheses) ([4]; concentrations as E130): (1.28X)
- Tyrosinase dpm/hr 10^3 Cells ([5]; 5 mM 5-NBene-2,2-DM): 292 ± 104 dpm/hr/10^3 Cells
- Tyrosinase dpm/hr ug Protein ([5]; 5 mM 5-NBene-2,2-DM): 1003 ± 370 dpm/hr/ug Protein

SMILES: OCC1(CO)CC2C=CC1C2 (stereo not drawn) [5-NBene-2,2-DM, 5-norbornene-2,2-dimethanol]
- Concentration Required for ≧2-fold Melanin Induction in S91 Cells [1]: 5 mM
- Concentration Required for ≧1.5-fold Melanin Induction in NHEMs ([2]; listed as 5-Norbornene-2,2-Dimethanol): 5 mM
- Concentration Required for ≧1.5-fold Melanin Induction in NHEMs ([2]; listed as 5-norbornene-2,2-dimethanol): ≤ 5 mM
- Pigmentation Ratings (X ± SE; n = 6; scale 0 to +4) ([3]; spot a (anterior), 8.7M 1,2-cis-CPD in 20% ETOH, 1M 5-NBene-2,2-DM in 8.5 M propylene glycol, 2% 2-pyrrolidone, 20% ETOH, 1M 2,3-cs/ex PD in 50% ETOH): 1.75 ± 0.43
- Pigmentation Ratings (X ± SE; n = 6; scale 0 to +4) ([3]; spot b, formulations as E220): 1.25 ± 0.21
- Pigmentation Ratings (X ± SE; n = 6; scale 0 to +4) ([3]; spot c, formulations as E220): 0.83 ± 0.15
- Pigmentation Ratings (X ± SE; n = 6; scale 0 to +4) ([3]; spot d (posterior), formulations as E220): 0.29 ± 0.08
- Tyrosinase In Situ [4, 7]: 24.5 dpm/hr/10^3 Cells and 25.4 dpm/hr/10^3 Cells
- Tyrosinase 200 g Partic [4, 8]: 6447 dpm/hr/10^3 Cells and 6291 dpm/hr/10^3 Cells
- Tyrosinase Cellular [4, 8]: 13838 dpm/hr/10^3 Cells and 14716 dpm/hr/10^3 Cells
- Tyrosinase Cellular ([4]; Black-Neonatal-NHEM, 1 mM): 10679 dpm/hr/10^3 cells
- Tyrosinase Cellular relative to Control ([4]; Black-Neonatal-NHEM, 1 mM): 1.08 X
- Tyrosinase In Situ ([4]; Black-Neonatal-NHEM, 1 mM): 13.9 dpm/hr/10^3 cells
- Tyrosinase In Situ relative to Control ([4]; Black-Neonatal-NHEM, 1 mM): 1.11 X
- Tyrosinase Media relative to Control ([4]; Black-Neonatal-NHEM, 1 mM): 2.41 X
- Tyrosinase Media ([4]; Black-Neonatal-NHEM, 1 mM, media from 1 day treatment period): 26.8 dpm/hr/10^3 cells
- Tyrosinase Cellular ([4]; Black-Neonatal-NHEM, 5 mM): 15398 dpm/hr/10^3 cells
- Tyrosinase Cellular relative to Control ([4]; Black-Neonatal-NHEM, 5 mM): 1.56 X
- Tyrosinase In Situ ([4]; Black-Neonatal-NHEM, 5 mM): 14.1 dpm/hr/10^3 cells
- Tyrosinase In Situ relative to Control ([4]; Black-Neonatal-NHEM, 5 mM): 1.13 X
- Tyrosinase Media relative to Control ([4]; Black-Neonatal-NHEM, 5 mM): 2.99 X
- Tyrosinase Media ([4]; Black-Neonatal-NHEM, 5 mM, media from 1 day treatment period): 33.2 dpm/hr/10^3 cells
- Tyrosinase 17300 g Partic ([4]; Post 200 X g, 5 day treatment, concentrations as E130): 493 dpm/hr/10^3 Cells and 473 dpm/hr/10^3 Cells
- Tyrosinase Media ([4]; Post 17300 X g, 5 day treatment, concentrations as E130): 4164 dpm/hr/10^3 Cells and 4639 dpm/hr/10^3 Cells
- Tyrosinase Cellular ([4]; White-Adult-NHEM, 1 mM): 12740 dpm/hr/10^3 cells
- Tyrosinase Cellular relative to Control ([4]; White-Adult-NHEM, 1 mM): 0.91 X
- Tyrosinase In Situ ([4]; White-Adult-NHEM, 1 mM): 6.27 dpm/hr/10^3 cells
- Tyrosinase In Situ relative to Control ([4]; White-Adult-NHEM, 1 mM): 1.13 X
- Tyrosinase Media relative to Control ([4]; White-Adult-NHEM, 1 mM): 0.82 X
- Tyrosinase Media ([4]; White-Adult-NHEM, 1 mM, media from 1 day treatment period): 29.9 dpm/hr/10^3 cells
- Tyrosinase Cellular ([4]; White-Adult-NHEM, 5 mM): 18467 dpm/hr/10^3 cells
- Tyrosinase Cellular relative to Control ([4]; White-Adult-NHEM, 5 mM): 1.32 X
- Tyrosinase In Situ ([4]; White-Adult-NHEM, 5 mM): 5.81 dpm/hr/10^3 cells
- Tyrosinase In Situ relative to Control ([4]; White-Adult-NHEM, 5 mM): 1.04 X
- Tyrosinase Media relative to Control ([4]; White-Adult-NHEM, 5 mM): 1.46 X
- Tyrosinase Media ([4]; White-Adult-NHEM, 5 mM, media from 1 day treatment period): 53.1 dpm/hr/10^3 cells
- Tyrosinase 200 g Partic, relative to controls (in parentheses) ([4]; concentrations as E130): (18.6X)
- Tyrosinase 17300 g Partic, relative to controls (in parentheses) ([4]; concentrations as E130): (4.22X)
- Tyrosinase Cellular, relative to controls (in parentheses) ([4]; concentrations as E130): (1.40X)
- Tyrosinase In Situ, relative to controls (in parentheses) ([4]; concentrations as E130): (1.57X)
- Tyrosinase Media, relative to controls (in parentheses) ([4]; concentrations as E130): (2.83X)
- Fold Induction of Tyrosinase Relative to Controls ([5]; 0.5 mM (Table 16)): 2.8X
- Fold Induction of Tyrosinase Relative to Controls ([5]; 1 mM (Table 15)): 4.0X
- Fold Induction of Tyrosinase Relative to Controls ([5]; 1 mM (Table 16)): 3.6X
- Fold Induction of Tyrosinase Relative to Controls ([5]; 2 mM (Table 15)): 12.9X
- Fold Induction of Tyrosinase Relative to Controls ([5]; 2.5 mM (Table 16)): 14.5X
- Tyrosinase Relative to Control ([5]; 5 mM 5-NBene-2,2-DM): 8.2X
- Tyrosinase dpm/hr/ug Protein ([5]; 5 mM 5-NBene-2,2-DM): 3273 dpm/hr/ug Protein
- Tyrosinase dpm/hr/10^3 Cells, Avg. ([5]; 5 mM 5-NBene-2,2-DM, average of two): 4381 dpm/hr/10^3 Cells
- Tyrosinase dpm/hr/10^3 Cells ([5]; 5 mM 5-NBene-2,2-DM, single replicates): 4515 dpm/hr/10^3 Cells and 4247 dpm/hr/10^3 Cells
- Fold Induction of Tyrosinase Relative to Controls ([5]; 5 mM (Table 15)): 41.9X
- Fold Induction of Tyrosinase Relative to Controls ([5]; 5 mM (Table 16)): 61.6X
- Tyrosinase dpm/hr 10^3 Cells ([5]; 5 mM 5-NBene-2,2-DM): 707 ± 54 dpm/hr/10^3 Cells
- Tyrosinase dpm/hr ug Protein ([5]; 5 mM 5-NBene-2,2-DM): 1643 ± 105 dpm/hr/ug Protein
- % of 5-NBene-2,2-DM [5, 9]: 100%
- Tyrosinase induction dpm/hr/10^3 cells [5, 9]: 5018 ± 415^1 dpm/hr/10^3 cells
- % of 5-NBene-2,2-DM [5, 10]: 100%
- Tyrosinase induction dpm/hr/10^3 cells [5, 10]: 5640 ± 323 dpm/hr/10^3 cells
- % of 5-NBene-2,2-DM [5, 11]: 100%
- Tyrosinase induction dpm/hr/10^3 cells [5, 11]: 6388 ± 460^1 dpm/hr/10^3 cells
